Measured values published in the NIST ThermoML archive (doi:10.1016/j.jct.2016.07.037).
Numbers after ± are expanded uncertainties. One block for each compound: values may come before it.

Legend:
[1] = Molar enthalpy of transition or fusion; conditions: Crystal; DSC
[2] = Crystal; for vapor or sublimation pressure: Calculated from knudsen effusion weight loss; for Normal melting temperature: DTA
[3] = molar enthalpy of vaporization or sublimation; conditions: 298.15 K; Crystal; Static calorimetry
[4] = molar heat capacity at constant pressure; conditions: 298.15 K; 101.33 kPa; Crystal; Drop calorimetry

Molar enthalpy of transition or fusion [1]: 9.08 ± 0.454 kcal/mol
vapor or sublimation pressure ([2]; 328.6 K): 0.00014 ± 2.1e-05 kPa
vapor or sublimation pressure ([2]; 330.6 K): 0.000172 ± 2.1e-05 kPa
vapor or sublimation pressure ([2]; 332.5 K): 0.000231 ± 2.2e-05 kPa
vapor or sublimation pressure ([2]; 334.5 K): 0.000302 ± 2.3e-05 kPa
vapor or sublimation pressure ([2]; 336.5 K): 0.000391 ± 2.4e-05 kPa
vapor or sublimation pressure ([2]; 338.4 K): 0.000502 ± 2.7e-05 kPa
vapor or sublimation pressure ([2]; 340.4 K): 0.000642 ± 3e-05 kPa
Normal melting temperature [2]: 139.2 ± 0.5 °C
molar enthalpy [3]: 30.2 ± 0.932 kcal/mol
molar heat capacity at constant pressure [4]: 725.3 ± 17 J/K/mol
Compound: OCC(F)(F)C(F)(F)C(F)(F)C(F)(F)C(F)(F)C(F)(F)C(F)(F)C(F)(F)C(F)(F)C(F)(F)C(F)(F)C(F)(F)C(F)(F)F

molar heat capacity at constant pressure [4]: 602.4 ± 14 J/K/mol
Compound: OCC(F)(F)C(F)(F)C(F)(F)C(F)(F)C(F)(F)C(F)(F)C(F)(F)C(F)(F)C(F)(F)C(F)(F)F [1H,1H-perfluoroundecan-1-ol]

molar heat capacity at constant pressure [4]: 563.9 ± 13 J/K/mol
Compound: OCC(F)(F)C(F)(F)C(F)(F)C(F)(F)C(F)(F)C(F)(F)C(F)(F)C(F)(F)C(F)(F)F [1H,1H-perfluoro-1-decanol]

Molar enthalpy of transition or fusion [1]: 5.88 ± 0.311 kcal/mol
vapor or sublimation pressure ([2]; 303.6 K): 6.95e-05 ± 2e-05 kPa
vapor or sublimation pressure ([2]; 306.1 K): 0.0001 ± 2e-05 kPa
vapor or sublimation pressure ([2]; 308.6 K): 0.000143 ± 2.1e-05 kPa
vapor or sublimation pressure ([2]; 311 K): 0.000196 ± 2.1e-05 kPa
vapor or sublimation pressure ([2]; 313.5 K): 0.000273 ± 2.2e-05 kPa
vapor or sublimation pressure ([2]; 316 K): 0.000376 ± 2.4e-05 kPa
vapor or sublimation pressure ([2]; 318.5 K): 0.000517 ± 2.7e-05 kPa
vapor or sublimation pressure ([2]; 321 K): 0.000727 ± 3.3e-05 kPa
vapor or sublimation pressure ([2]; 323.5 K): 0.001007 ± 7.8e-05 kPa
Normal melting temperature [2]: 114.2 ± 1.3 °C
molar enthalpy [3]: 26.4 ± 0.86 kcal/mol
molar heat capacity at constant pressure [4]: 645.2 ± 15 J/K/mol
Compound: OCC(F)(F)C(F)(F)C(F)(F)C(F)(F)C(F)(F)C(F)(F)C(F)(F)C(F)(F)C(F)(F)C(F)(F)C(F)(F)F [1H,1H-perfluoro-1-dodecanol]

molar heat capacity at constant pressure [4]: 515.9 ± 12 J/K/mol
Compound: OCC(F)(F)C(F)(F)C(F)(F)C(F)(F)C(F)(F)C(F)(F)C(F)(F)C(F)(F)F [2,2,3,3,4,4,5,5,6,6,7,7,8,8,9,9,9-heptadecafluoro-1-nonanol]
